Entries after “also recorded” stand apart in the source; their conditions may differ.
Key:
[1] = test system: mouse lung cancer cells (3LL); assay: Mouse 3LL lung cancer cell culture study; type: cell-based
Description: Growth of 3LL and RM1 cells was in Dulbecco's modified Eagle's medium containing serum and antibiotics with 5 mM sodium pyruvate and 0.25 mM non essential amino acid mixture (Gibco). Compound (1) was added as a sterile solution and MTA was absent or present at 20 μM.

[2] = test system: FaDu cells; assay: Cell cycle and apoptosis analysis of FaDu cells (propidium staining, FACS); type: cell-based, human; settings: for Apoptosis / G1 / G2 / S: 6 days
Description: (§1) FaDu cells were maintained in MEM Eagle's media supplemented with 10% fetal bovine serum, 100 units/ml penicillin, 100 μg/mL streptomycin, 0.1 mM non essential amino acids and 1 mM sodium pyruvate. Cell survival was evaluated using the WST-1 assay (Kicska G A, long Li, Honig H, et al. Proc Natl Acad Sci USA 2001; 98:4593-98). Cells were seeded onto 96 well plates at a density of 10^4 cells per well, with either no additions, 1 μM compound (2), 20 μM MTA or 1 μM compound (2)+20 μM MTA, IC50 was determined following the manufacturer's protocol (Roche Applied Science, Ind.). Cells were grown and measured in triplicate or quadruplicate and the error bars show the mean±SD of the multiple samples.
FaDu cells were subjected to six days in culture using the same conditions described as for Example 4, before staining with propidium […] and FACS cell sorting analysis.

[3] = test system: TRAMP (transgenic adenocarcinoma of mouse prostate) mice; assay: Treatment of TRAMP mice (tumour mass, metastasis, MRI, histology, polyamines); type: in vivo; settings: for prostate cancer progression: alone or in combination with MTA; for tumour weight upon dissection: TRAMP mouse treated with 1 mM compound
Description: MRI experiments were performed using a 9.4T 21 cm bore horizontal bore magnet (Magnex Scientific) Varian INOVA MRI system (Fremont, Calif.) equipped with a 28 mm inner diameter quadrature birdcage coil. Mice were anesthetized with isoflurane inhalation anesthesia (1-1.5% in 100% O2 administered via a nose cone) and positioned in the MRI coil. Body temperature was maintained (37-38° C.) using a homeothermic warming system. After acquiring scout images, multi-slice spin-echo imaging with an echo time of 18 ms and a repetition time of 400 ms ms was performed. A 40 mm field of view with a 256×256 matrix size was used. Nine to 15 slices along the transverse, sagittal, and coronal planes were acquired in each multi-slice experiment with a slice thickness of 1 mm and the gap between slices of 0.5 mm. MRI data were processed off-line with MATLAB-based MRI analysis software.
(§2) Spent media and perchloric acid extracts of both PC3 cells and tissue samples were subjected to purification via cation exchange chromatography and dansyl-derivatized with minor changes. Disposable 10 ml BIO-RAD columns were centrifuged at 4,000 rpm for 3 minutes. Sodium carbonate used for derivatization was adjusted to pH 9.3 and the concentration of dansyl-chloride was adjusted to 100 mM. Dansyl-polyamines were quantitated by a Waters HPLC/Fluorescence system. A Phenomenex Luna 5μ C18 column was used with a mobile phase of 30% acetonitrile in a 50 mM ammonium acetate buffer at pH 6.8 (eluent A) and 100% acetonitrile (eluent B). Fluorescence detection was monitored by excitation at 338 nm and emission at 500 nm.
Long-Term: Sterile solutions of 100 μM compound (2) (pH ˜6.4). Water bottles were autoclaved prior to filling with sterile inhibitor solutions. Water consumption was monitored every other day, with fresh inhibitor solution being administered to prevent bacterial growth. Mice were control-sacrificed and tissues (genitourinary system, liver, lungs) were collected for histology and polyamine analysis. Mass and dimensions of excised genitourinary system tumours were recorded. Sections of small intestine were also removed for toxicity analysis via H&E staining.

[4] = test system: PC3 cells; assay: Time dependent proliferation of PC3 cells (WST-1 assay); type: cell-based, human; settings: 1 μM compound + 20 μM MTA
Description: as §1, with “PC3” for “FaDu”, “Hong” for “Honig”, “MTA.” for “MTA,”

[5] = test system: SCC25 cells; assay: Time dependent proliferation of SCC25 cells (WST-1 assay); type: cell-based, human; settings: 1 μM compound + 20 μM MTA
Description: as §1, with “SCC25 cells were” for “FaDu cells were”, “long Li, Hong H, et” for “long Li, Honig H, et”, “1 μM MT-compound (2), 20” for “1 μM compound (2), 20”, “(2)+20 μM MTA. IC50 was” for “(2)+20 μM MTA, IC50 was”

[6] = test system: FaDu cells; assay: Time dependent proliferation (WST-1) and phase contrast microscopy of FaDu cells; type: cell-based, human
Description: as §1
FaDu cells were subjected to six days in culture using the same conditions described as for Example 4.

[7] = test system: normal human fibroblast cells (GM02037); assay: Cytotoxicity on normal human fibroblast cells; type: cell-based; settings: GM02037 cells treated with compound and MTA for 3 weeks
Description: In order to determine whether the inhibition is selective for malignant cells, normal human fibroblast cells (GM02037) were also treated with compound (2) and MTA for 3 weeks. […] This selectivity is a further indication that the MTAP inhibitors described above are useful agents for the treatment of head and neck cancer.

[8] = test system: FaDu xenografts; assay: FaDu xenograft study in NOD-SCID mice; type: in vivo, mouse
Description: NOD-SCID mice (6-8 weeks old) were obtained from Jackson Laboratory (Bar Harbor, Me.). FaDu cells (10^6) were inoculated into the dorsum of the hind foot. After 5 days, mice were treated with 9 mg/kg or 21 mg/kg body weight of compound (2) in drinking water or by daily i.p. injections of 5 mg/kg body weight of compound (2). After inoculation mice were assigned to treatment or control groups (n=5). Tumor volume (V) was determined from: V=(4/3)*(22/7)*1/8*(length*width*height). Differences between treatment cohorts were determined using the Student's t test. Mice were weighed every 4-5 days, monitored for hair loss, loss of appetite, vomiting and diarrhea. Total and differential blood and bone marrow analyses were performed after treatment with compound (2).

[9] = test system: PC3 cells; assay: Quantitation of polyamines in PC3 cells and spent media (HPLC fluorescence); type: cell-based, human
Description: PC3 cells were cultured and treated in triplicate as follows: untreated control, 20 μM substrate (MTA) alone, 1 μM compound (2) alone, or a combination of both substrate and inhibitor. Both cells and spent media were harvested at 1, 6, and 12 days for polyamine analysis by HPLC fluorescence.
as §2

[10] = test system: PC3 cells; assay: Clonogenic survival assay of PC3 cells; type: cell-based, human; settings: combination treatment with MTA, approximately 2 weeks
Description: • 1. 60% confluent plates of experimental cell line was taken and subjected to trypsinization • 2. Single cell suspension of the experimental cell line was made in the regular growth medium and number of cells per mililiter of suspension counted • 3. A fixed low number of cells were plated out in a volume of 3 ml of growth medium in each well of 6 well culture dishes and incubated overnight at 37° C. in a CO2 incubator • 4. Measured volumes of the inhibitor and substrate solutions in sterile deionised cell culture water was added to each well of the 6 well plates. Typically each concentration of inhibitor and/or substrate was added in triplicate wells to calculate error bars. […] At the end of the period of incubation growth medium was removed from each well, attached cells were washed once with PBS and fixed by addition of […] Formalin solution to each well and keeping at room temperature for ˜1 hour. • 7. […] Number of crystal violet stained colonies in each well containing more than 60 cells per colony was counted. • 10. Assuming each colony originated from a single surviving cell post-treatment and taking the number of colonies in the untreated control well as 1, the fraction of surviving cells in each well was calculated and plotted in a graph. […]

[11] = test system: Cal27 cells; assay: Cal27 cells grown 8 days with compound and MTA; type: cell-based; settings: 1 μM compound + 20 μM MTA, G2/M arrest and apoptosis
Description: FIGS. 25A and 25B show Cal27 cells grown for 8 days as control (untreated), in the presence of 20 μM MTA, 1 μM compound (2) alone or in combination (1 μM compound (2)+20 μM MTA).

[12] = test system: liver polyamine levels; assay: Short-term treatment of mice, liver polyamine analysis; type: in vivo, mouse; settings: short-term treatment (24, 48 hours, 7 days), 100 μM in drinking water
Description: C56BI/6 mice were treated with 100 μM compound (2) via their drinking water and sacrificed at 24, 48 hours, and 7 days. Livers were immediately removed for polyamine analysis. TRAMP mice were treated approximately 6-8 months with 100 μM compound (2) via their drinking water and control sacrificed. Livers were removed for polyamine analysis.
as §2
Short-Term: Mice were treated with sterile solutions of 100 μM compound (2) (pH ˜6.4). Water bottles were autoclaved prior to filling with sterile inhibitor solutions. Mice were sacrificed at 1, 2, and 7 days, with three mice in each group, with the control group sacrificed after 7 days. […]

[13] = TRAMP mice, 100 μM in drinking water, n=12, 29 ± 7 weeks treated

## Nc1ncnc2c(CN3CC(O)[C@@H](CSCc4ccccc4)C3)c[nH]c12 (stereo partly drawn) [compound (1)]
[1]; in the absence of MTA
  response of mouse lung cancer cells in culture: not responding
[1]; in the presence of 20 μM MTA
  response of mouse lung cancer cells in culture: responding

## CSC[C@H]1N[C@@H](c2c[nH]c3c(N)ncnc23)C(O)C1O (stereo partly drawn) [compound (3)]
[2]; MTA+compound
  Apoptosis: 29.41%
  G1: 8.26%
  G2: 60.49%
  S: 31.25%
[2]; single agent
  Apoptosis: 7.89%
  G1: 72.06%
  S: 17.98%
[3]; TRAMP mice
  prostate cancer progression: inhibits prostate cancer progression

## CSC[C@H]1O[C@@H](n2cnc3c(N)ncnc32)[C@H](O)[C@@H]1O [MTA, methylthioadenosine]
[2]; single agent
  Apoptosis: 6.66%
  G1: 79.67%
  G2: 9.91%
  S: 10.42%

## CSC[C@H]1CN(Cc2c[nH]c3c(N)ncnc23)C[C@@H]1O [compound (2)]
[2]; in combination with MTA
  stopping cell cycling / apoptosis: effective for stopping cell cycling
[4]
  cell proliferation: reduces cell proliferation
[5]
  cell proliferation: reduces cell proliferation
[6]; 1 μM compound + 20 μM MTA
  cell proliferation: reduces cell proliferation
[6]; 5 days, inhibitor compound + MTA
  cell growth (phase contrast photographs): effective in inhibiting cell growth
[7]
  cytotoxicity: No cytotoxicity was observed
[8]; 28 days after end of 28 day therapy, two highest doses
  regrowth of tumor after treatment removed: no regrowth of tumor
[8]; NOD-SCID mice, after 28 day treatment
  animal weight, total and differential blood counts vs control: No significant differences
[8]; NOD-SCID mice, oral or i.p., with or without MTA
  growth of established FaDu xenografts: significantly slower than in controls; also recorded: significantly delays the growth
[3]; [13]
  Metastatic Cancer: 8%
  Tumor Size: 1.7 ± 0.8 g
[3]; TRAMP mice
  prostate cancer progression: inhibited
[3]; TRAMP mice, long-term treatment
  toxicity: intestinal crypts (H&E), hair loss, GI problems: No alterations, inflammations, or irregularities were observed
[3]; dissection at 34 weeks of age (Panel E)
  tumour weight upon dissection: 0.41 g
[3]; dissection at 39 weeks of age (Panel F)
  tumour weight upon dissection: 0.64 g
[3]; extended treatment, 100 μM in drinking water
  TRAMP liver or GUS polyamine levels: no significant alterations
[3]; treated TRAMP mice, histology
  size and incidence of preinvasive tumors, incidence of invasive cancer and metastasis: decreased
[9]; 1 μM compound + 20 μM MTA, 1 day
  intracellular PUT levels: 3.03×10^−3±2.86×10^−2 pmoles PUT/mg protein
[9]; compound + MTA, 1 day
  SPN levels in spent media: slightly decreased
  increase in intracellular PUT levels vs control: 6 fold
  increase in intracellular SPD levels vs control: ~2.5 fold
  increase in spent media PUT levels vs control: 2 fold
  intracellular SPD levels: 7.19×10^−3±4.38×10^−2 pmoles SPD/mg protein
  spent media PUT levels: 1.19×10^3±2.04×10^−1 pmoles PUT/mL spent media
[9]; compound + MTA, 6 days
  PUT level vs control: elevated
  SPD level vs control: elevated
  decrease in cellular SPN levels vs control: roughly 0.5 fold
  levels of PUT in spent media: 2.41×10^−3±7.35×10^−1 pmoles PUT/mL spent media
  levels of PUT in spent media relative to control: almost double that of the control
[9]; compound + MTA, day 12
  cellular SPD levels: 9.05×10^−3±1.09×10^−3 pmoles SPD/mg protein
  intracellular PUT levels vs controls: significantly higher than controls
[10]
  effect on PC3 cells in clonogenic assay: cytostatic effect
[11]
  number of viable Cal27 cells: decreased
[12]
  polyamine levels of mice livers: not significantly altered

Source: patent US8916571B2, “Methods of treating cancer using inhibitors of 5′-methylthioadenosine phosphorylase” (Albert Einstein College of Medicine of Yeshiva University, priority 2006, dated 2014)
